In patent publication US20230089557A1, “METHODS OF TREATING DLBCL USING BTK INHIBITORS AND COMBINATIONS THEREOF” (BEIGENE SWITZERLAND GMBH, priority 2020, published 2023):

How the values were obtained:
Non-GCB DLBCL PDX models = experiment: Compound 1 efficacy (TGI) in non-GCB DLBCL PDX models by EBV status; type: in vivo, mice; settings: p.o. 7.5 mg/kg BID
Excerpt: DLBCL patient-derived xenografted (PDX) models were established in immunodeficient NCG (NOD-Prkdcem26Cd52Il2rgem26Cd22/NjuCrl) mice. These models were classified into GCB and non-GCB subgroups based on immunohistochemistry (IHC) staining using Hans algorithm. Non-GCB DLBCL PDX models were classified into Epstein-Barr virus (EBV) negative and EBV positive subgroups. For efficacy studies, tumor tissues were inoculated subcutaneously into NCG mice. When tumors reached 100˜200 mm^3, mice were randomized into each group with 7˜10 mice/group based on tumor volume. Compound 1 was formulated with 0.5% methyl cellulose as vehicle and treatment was started on the day of randomized grouping. Compound 1 was administrated p.o., 7.5 mg/(kg body weight), BID. Tumor volumes were measured twice weekly in two dimensions using a caliper, and the volume were expressed in mm^3 using the formula:
V=0.5(a×b^2) where a and b are the long and short diameters of the tumor, respectively.
Tumor growth inhibition (TGI) was calculated using the following formula:
% TGI=100×[1−(treatmentvt−treatmentv0)/(vehiclevt−Vehiclev0)]
Treatmentvt=tumor volume of treatment group at time t.
treatmentv0=tumor volume of treatment group at time of treatment started. […]
Average TGI of each model was used and represented as a dot point in the figure. P value was calculated using two tails t test to compare difference between groups.

R/R non-GCB DLBCL = experiment: Four Compound 1 studies pooled (monotherapy and combination), response by BCL2/MYC expression; type: in vivo, human; settings: for BOR / BOR (responders/patients) / OS / PFS: mono- and combination therapies pooled; for overall survival / progression-free survival / ORR / ORR (responders/patients): two monotherapies and two combination therapies
Experimental: A total of 121 patients with R/R non-GCB DLBCL were recruited in four Compound 1 treatment studies that were conducted at a similar time period. Two of the four studies were Compound 1 monotherapy (n=79) and two were Compound 1 combined with an anti-CD20 antibody therapy (n=42). Similar inclusion and exclusion criteria and response evaluation criteria were used across all studies. Fifty-six non-GCB patients were further subtyped by gene expression profiling (GEP) using the HTG EdgeSeq DLBCL Cell of Origin Assay. The expression of approximately 90 lymphoma-associated genes from the HTG GEP assay were analyzed by R package limma for correlation with response to Compound 1 treatment. Seventy-seven patient samples were tested by next-generation sequencing (NGS) with a panel of genes. Chi-square test was used to evaluate the correlation between mutations and the objective response rate (ORR).
Monotherapy schedule 1: Compound 1 was administered orally every day at 160 mg twice daily (BID) in 28-day cycles in patients with R/R non-GCB DLBCL
Monotherapy schedule 2: Compound 1 was administered orally every day in each cycle at 160 mg BID in 28-day cycles in patients with R/R non-GCB DLBCL.
Combination therapy schedule 1: Compound 1 was administered orally every day in each cycle at 160 mg BID in 28-day cycles, in combination with obinutuzumab, in patients with R/R non-GCB DLBCL. Obinutuzumab was administered for up to 6 cycles consistent with the U.S. label regimen (100 mg at Day 1 Cycle 1, 1000 mg at Day 8 and Day 15, 900 mg at Day 2 Cycle 1 followed by 1000 mg on day one of cycles 2-6).
Combination therapy schedule 2: Compound 1 was administrated orally every day in each cycle at 160 mg BID in 28-day cycles, in combination with rituximab, in patients with R/R non-GCB DLBCL. And, rituximab was administered at 375 mg/m2 intravenously on Cycle 1 Days 1, 8, 15, 22, and on Day 1 of Cycles 4, 6, 8, 10. Compound 1 was administered at least 30 minutes prior to the initiation of the rituximab infusion.
A total of 121 patients with non-GCB DLBCL were included for response evaluation. 79 patients were subjected to Compound 1 monotherapies (Monotherapy Schedule 1 or 2), and 42 patients were subjected to Compound 1 plus anti-CD20 antibody Combination therapy (Combination therapy schedule 1 or 2).
56 non-GCB patients were further subtyped by gene expression profiling (GEP) using the HTG EdgeSeq DLBCL Cell of Origin Assay. The expression of approximately 90 lymphoma-associated genes from the HTG GEP assay were analyzed by R package limma for correlation with response to zanubrutinib treatment.

[1] = MYC and BCL2 double expressor (DE) patients

Q: With C=CC(=O)N1CCC([C@@H]2CCNc3c(C(N)=O)c(-c4ccc(Oc5ccccc5)cc4)nn32)CC1 [Compound 1, (S)-7-(1-acryloylpiperidin-4-yl)-2-(4-phenoxyphenyl)-4,5,6,7-tetra-hydropyrazolo[1,5-a]pyrimidine-3-carboxamide] as the molecule, how does the “TGI (mean±SD)” value (Non-GCB DLBCL PDX models; EBV negative non-GCB DLBCL models) read?
A: The value was 78.00±43.41%.

Q: What about the “TGI (mean±SD)” value (Non-GCB DLBCL PDX models; EBV positive non-GCB DLBCL models) of the same molecule?
A: Its value is 33.25±22.41%.

Q: What about the BOR (R/R non-GCB DLBCL; BCL2-high patients) of the same molecule?
A: Its BOR is 57%.

Q: And the “BOR (responders/patients)” value (R/R non-GCB DLBCL; BCL2-high patients)?
A: Its value is 16/28.

Q: And the OS (R/R non-GCB DLBCL; BCL2-high patients)?
A: Its OS is 10 m.

Q: What about the PFS (R/R non-GCB DLBCL; BCL2-high patients) of the same molecule?
A: The PFS was 5.3 m.

Q: What about the BOR (R/R non-GCB DLBCL; BCL2-low patients) of the same molecule?
A: The BOR was 21%.

Q: And the “BOR (responders/patients)” value (R/R non-GCB DLBCL; BCL2-low patients)?
A: The value was 6/28.

Q: What about the OS (R/R non-GCB DLBCL; BCL2-low patients) of the same molecule?
A: The OS was 6 m.

Q: What about the PFS (R/R non-GCB DLBCL; BCL2-low patients) of the same molecule?
A: Its PFS is 2.8 m.

Q: What about the overall survival (R/R non-GCB DLBCL; DE patients) of the same molecule?
A: The overall survival was 10 months.

Q: What about the progression-free survival (R/R non-GCB DLBCL; DE patients) of the same molecule?
A: The progression-free survival was 5.4 months.

Q: What about the ORR (R/R non-GCB DLBCL; [1]) of the same molecule?
A: The ORR was 61%.

Q: What about the “ORR (responders/patients)” value (R/R non-GCB DLBCL; [1]) of the same molecule?
A: The value was 11/18.

Q: What about the BOR (R/R non-GCB DLBCL; MYC-high patients) of the same molecule?
A: The BOR was 46%.

Q: What about the “BOR (responders/patients)” value (R/R non-GCB DLBCL; MYC-high patients) of the same molecule?
A: Its value is 13/28.

Q: What about the OS (R/R non-GCB DLBCL; MYC-high patients) of the same molecule?
A: Its OS is 10 m.

Q: What about the PFS (R/R non-GCB DLBCL; MYC-high patients) of the same molecule?
A: The PFS was 5.4 m.

Q: And the BOR (R/R non-GCB DLBCL; MYC-low patients)?
A: Its BOR is 32%.

Q: What about the “BOR (responders/patients)” value (R/R non-GCB DLBCL; MYC-low patients) of the same molecule?
A: Its value is 9/28.

Q: What about the OS (R/R non-GCB DLBCL; MYC-low patients) of the same molecule?
A: The OS was 7 m.

Q: And the PFS (R/R non-GCB DLBCL; MYC-low patients)?
A: The PFS was 2.9 m.

Q: What about the ORR (R/R non-GCB DLBCL; non-DE patients) of the same molecule?
A: Its ORR is 29%.

Q: And the “ORR (responders/patients)” value (R/R non-GCB DLBCL; non-DE patients)?
A: Its value is 11/38.

Q: And the overall survival (R/R non-GCB DLBCL; non-DE patients)?
A: Its overall survival is 7 months.

Q: What about the progression-free survival (R/R non-GCB DLBCL; non-DE patients) of the same molecule?
A: The progression-free survival was 3.6 months.
